In patent US8242105B2, “Structural mimetics of proline-rich peptides and the pharmaceutical use thereof” (priority 2006, dated 2012):
No end group written: not given here.

What was measured:
VASP/EVH1 domain [1] = target: T1, VASP/EVH1 domain (Homo sapiens, UniProt P50552); experiment: Fluorescence titration of ligand peptides; type: binding
T1 construct: the EVH1 domain of a completely ^15N-labelled VASP protein
Experimental: Using the synthetic compound 85, ligand peptides with partially or completely replaced proline sequences were synthesized and investigated for their interaction with the EVH1 domain (pp=building block 85). […] The binding affinities were determined using NMR titration, the kinetic Biacore method, or by means of fluorescence titration.

VASP/EVH1 domain [2] = target: T1, VASP/EVH1 domain; experiment: NMR titration (15N-1H-HSQC) of the VASP/EVH1 domain with ligand peptide; conditions: Binding affinity (NMR), VASP/EVH1 domain in solution; KD from change in chemical shift versus ligand peptide concentration
Experimental: The interactions between the EVH1 domain of a completely ^15N-labelled VASP protein and the ligand peptides I and II was elucidated using multidimensional NMR-spectroscopic methods. To this end, the EVH1 domain in a solution was titrated with varying amounts of ligand peptide and investigated by recording ^15N-^1H-HSQC-NMR spectra each time. In the event of positive binding interaction, increasing the ligand concentration step by step (10, 20, 50, 100, 200, 500 and 1000 μM) results in a clearly recognizable shift of some domain signals, which can be used to calculate values for the binding constant at a later point in time.
A continuous equilibrium, i.e. [EVH1]-ligand (bound) ? [EVH1]+ligand (unbound), is present in solution so that, depending on the rate of interchange of the ligands, different NMR spectra are obtained (in analogy to the signals of —OH and —NH in the one-dimensional range).
When correlating the changes in the chemical shift of the cross-peaks with the binding strength between domain and ligand peptide, it is possible to calculate values for the binding constant by plotting the change in shift Δδ versus the ligand peptide concentration.

VASP/EVH1 domain [3] = target: T1, VASP/EVH1 domain; experiment: Biacore (surface plasmon resonance) binding of ligand peptides; conditions: Binding affinity (Biacore), initial measurements yet remaining to be verified
Source text: In this method the domain protein is immobilized on the surface of a sensor chip, while a solution of ligand peptide flows across the surface. By measuring the surface plasmon resonance that causes the refractive index to change, it is possible to monitor the binding kinetics in real-time so that the association and dissociation constants can also be determined.

VASP/EVH1 domain [4] = target: T1, VASP/EVH1 domain; type: binding
Source text: This can be seen in FIG. 2 wherein the class I EVH1 domain of the human VASP protein was investigated together with a short section from the ActA peptide (332[sequence]344).
(§1) Using a series of different test ligand peptides, it was also possible to gain an overview over the binding affinities.

Mena/EVH1 domain = Mena/EVH1 domain (Homo sapiens, UniProt Q8N8S7); experiment: biochemical
Mena/EVH1 domain, sequence (Q8N8S7 1-111 limits assumed): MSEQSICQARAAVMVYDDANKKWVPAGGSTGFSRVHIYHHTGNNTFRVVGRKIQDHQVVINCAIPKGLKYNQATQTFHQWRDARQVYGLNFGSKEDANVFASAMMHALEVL
Source text: as §1

T1 sequence (P50552 2-113): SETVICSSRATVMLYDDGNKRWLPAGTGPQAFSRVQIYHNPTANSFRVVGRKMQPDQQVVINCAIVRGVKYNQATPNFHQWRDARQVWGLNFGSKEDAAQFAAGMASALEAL

Q: For `CC(C)C[C@H](NC(=O)[C@H](CCC(=O)O)NC(=O)[C@H](CC(=O)O)NC(=O)[C@H](CCC(=O)O)NC(=O)[C@@H](NC(=O)[C@@H]1CC[C@@H]2C=C[C@H]3CCN(C(=O)[C@@H]4CCCN4C(=O)[C@@H]4CCCN4C(=O)[C@H](Cc4ccccc4)NC(=O)[C@H](CCC(=O)O)NC(=O)[C@H](Cc4ccccc4)NC(=O)[C@@H](N)CO)[C@@H]3C(=O)N21)[C@@H](C)O)C(=O)O` [SFEFPPppTEDEL], which Kd (VASP/EVH1 domain [1]) is on record?
A: The Kd was 26 ± 5 µM.

Q: What does the source list for `CC(C)C[C@H](NC(=O)[C@H](CCC(=O)O)NC(=O)[C@H](CC(=O)O)NC(=O)[C@H](CCC(=O)O)NC(=O)[C@@H](NC(=O)[C@@H]1CCCN1C(=O)[C@@H]1CC[C@@H]2C=C[C@H]3CCN(C(=O)[C@@H]4CCCN4C(=O)[C@H](Cc4ccccc4)NC(=O)[C@H](CCC(=O)O)NC(=O)[C@H](Cc4ccccc4)NC(=O)[C@@H](N)CO)[C@@H]3C(=O)N21)[C@@H](C)O)C(=O)O` [SFEFPppPTEDEL]?
A: Kd (VASP/EVH1 domain [2]): 20 to 35 µM; Kd (VASP/EVH1 domain [1]): 47 ± 14 µM; Kd (VASP/EVH1 domain [3]): 29.3 to 33.3 µM

Q: For `CC(C)C[C@H](NC(=O)[C@H](CCC(=O)O)NC(=O)[C@H](CC(=O)O)NC(=O)[C@H](CCC(=O)O)NC(=O)[C@@H](NC(=O)[C@@H]1CCCN1C(=O)[C@@H]1CCCN1C(=O)[C@@H]1CC[C@@H]2C=C[C@H]3CCN(C(=O)[C@H](Cc4ccccc4)NC(=O)[C@H](CCC(=O)O)NC(=O)[C@H](Cc4ccccc4)NC(=O)[C@@H](N)CO)[C@@H]3C(=O)N21)[C@@H](C)O)C(=O)O` [SFEFppPPTEDEL], which Kd (VASP/EVH1 domain [1]) is on record?
A: The Kd was 82 ± 30 µM.

Q: `CC(C)C[C@H](NC(=O)[C@H](CCC(=O)O)NC(=O)[C@H](CC(=O)O)NC(=O)[C@H](CCC(=O)O)NC(=O)[C@@H](NC(=O)[C@@H]1CC[C@@H]2C=C[C@H]3CCN(C(=O)[C@@H]4CC[C@@H]5C=C[C@H]6CCN(C(=O)[C@H](Cc7ccccc7)NC(=O)[C@H](CCC(=O)O)NC(=O)[C@H](Cc7ccccc7)NC(=O)[C@@H](N)CO)[C@@H]6C(=O)N54)[C@@H]3C(=O)N21)[C@@H](C)O)C(=O)O` [SFEFppppTEDEL] was tested. Which Kd (VASP/EVH1 domain [1]) did it give?
A: The Kd was 45 ± 15 µM.

Q: Which results are given for FPPPPT [FPPPPT]?
A: binding affinity KD (VASP/EVH1 domain [4]): no measurable affinity; Kd (Mena/EVH1 domain): 417 µM
